Like-named read-outs stand apart in the source and are kept apart here.
Tests used:
BSA = biological target: T1, BSA (Bos taurus, UniProt P02769); design: Intact protein LC/MS covalent labelling, fragments in pools of five, 200 uM each, 4 °C; settings: 24 h, 4 °C, pool of five; 200 µM; covalent
T1 construct: gene ALB

NUDT7 = biological target: T2, NUDT7 (Homo sapiens, UniProt P0C024); design: Intact protein LC/MS covalent labelling, fragments in pools of five, 200 uM each, 4 °C; settings: 24 h, 4 °C, pool of five; 200 µM; covalent
T2 construct: residues 14-235, E. coli, pNIC28-Bsa4, N-terminal His6 tag removed by TEV, construct 26672 Da

OTUB2 (OTUB2A) = biological target: T3, OTUB2 (OTUB2A) (Homo sapiens, UniProt Q96DC9); design: Intact protein LC/MS covalent labelling, fragments in pools of five, 200 uM each, 4 °C; settings: 24 h, 4 °C, pool of five; 200 µM; covalent
T3 construct: full length residues 1-234, E. coli BL21(DE3)-R3, His tag removed by TEV, construct 27312 Da
T3 sequence (Q96DC9 1-234): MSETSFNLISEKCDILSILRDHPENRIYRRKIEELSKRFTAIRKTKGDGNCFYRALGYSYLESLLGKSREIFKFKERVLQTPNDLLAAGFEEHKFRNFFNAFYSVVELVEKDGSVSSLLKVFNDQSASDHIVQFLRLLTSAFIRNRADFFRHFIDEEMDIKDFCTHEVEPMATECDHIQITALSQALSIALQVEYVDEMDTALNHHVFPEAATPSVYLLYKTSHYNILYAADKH

PCAF = biological target: T4, PCAF (Homo sapiens, UniProt Q92831); design: Intact protein LC/MS covalent labelling, fragments in pools of five, 200 uM each, 4 °C; settings: 24 h, 4 °C, pool of five; 200 µM; covalent
T4 construct: gene KAT2B

in vitro [1] = assay: in vitro; design: species or system CCD841, HEK293; settings: human, hb2 cells, read-out: HB-2 Cells Viability (%)
in vitro [2] = assay: in vitro; design: species or system HB2, HEK293; settings: human, ccd841 cells
in vitro [3] = assay: in vitro; design: species or system HB2, CCD841; settings: human, hek293 cells

T2 sequence (P0C024 14-235): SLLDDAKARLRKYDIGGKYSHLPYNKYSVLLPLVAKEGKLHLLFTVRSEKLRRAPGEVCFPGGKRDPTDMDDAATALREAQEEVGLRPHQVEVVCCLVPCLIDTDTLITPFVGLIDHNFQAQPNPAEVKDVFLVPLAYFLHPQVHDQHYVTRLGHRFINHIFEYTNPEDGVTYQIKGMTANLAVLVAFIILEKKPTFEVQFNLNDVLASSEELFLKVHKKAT
T1 sequence (P02769 whole entry, the tested form may be a part): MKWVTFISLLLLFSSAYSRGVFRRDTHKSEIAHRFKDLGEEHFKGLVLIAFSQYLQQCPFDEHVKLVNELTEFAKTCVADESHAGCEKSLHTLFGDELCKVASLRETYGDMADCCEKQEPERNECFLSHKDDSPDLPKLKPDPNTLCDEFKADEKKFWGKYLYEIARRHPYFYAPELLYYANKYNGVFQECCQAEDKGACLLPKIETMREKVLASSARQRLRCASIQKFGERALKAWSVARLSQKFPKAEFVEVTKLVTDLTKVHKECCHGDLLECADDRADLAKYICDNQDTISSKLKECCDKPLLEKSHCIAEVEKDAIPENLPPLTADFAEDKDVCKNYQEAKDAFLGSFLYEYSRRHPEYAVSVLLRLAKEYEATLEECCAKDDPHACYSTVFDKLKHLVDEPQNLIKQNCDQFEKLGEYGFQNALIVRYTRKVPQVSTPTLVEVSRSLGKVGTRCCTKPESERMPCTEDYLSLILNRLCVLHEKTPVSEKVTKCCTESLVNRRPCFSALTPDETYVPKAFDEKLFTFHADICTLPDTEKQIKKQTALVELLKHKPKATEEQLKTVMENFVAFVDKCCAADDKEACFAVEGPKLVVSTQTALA
T4 sequence (Q92831 whole entry, the tested form may be a part): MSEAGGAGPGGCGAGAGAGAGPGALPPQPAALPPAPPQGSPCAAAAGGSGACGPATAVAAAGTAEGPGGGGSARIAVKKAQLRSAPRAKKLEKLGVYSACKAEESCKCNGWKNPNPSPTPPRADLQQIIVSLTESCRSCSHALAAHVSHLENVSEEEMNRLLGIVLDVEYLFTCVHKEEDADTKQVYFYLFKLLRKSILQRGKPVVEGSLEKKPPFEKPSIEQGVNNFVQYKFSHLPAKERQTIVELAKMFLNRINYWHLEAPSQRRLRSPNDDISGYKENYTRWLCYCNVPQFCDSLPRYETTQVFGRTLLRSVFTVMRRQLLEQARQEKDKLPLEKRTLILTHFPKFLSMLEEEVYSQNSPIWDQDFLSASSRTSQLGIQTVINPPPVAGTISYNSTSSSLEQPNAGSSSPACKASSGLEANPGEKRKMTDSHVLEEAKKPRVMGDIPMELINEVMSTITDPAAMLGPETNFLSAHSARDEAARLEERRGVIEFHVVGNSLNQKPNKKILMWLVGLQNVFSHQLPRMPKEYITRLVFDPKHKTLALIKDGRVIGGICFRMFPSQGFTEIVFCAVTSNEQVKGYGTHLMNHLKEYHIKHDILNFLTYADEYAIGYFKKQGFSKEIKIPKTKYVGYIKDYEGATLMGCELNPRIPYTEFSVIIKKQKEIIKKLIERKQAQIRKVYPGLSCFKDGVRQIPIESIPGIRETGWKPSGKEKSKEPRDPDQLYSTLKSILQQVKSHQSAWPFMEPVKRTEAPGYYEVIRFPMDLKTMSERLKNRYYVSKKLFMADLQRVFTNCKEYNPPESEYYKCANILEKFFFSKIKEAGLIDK

| Compound | BSA (BSA) | NUDT7 (NUDT7) | OTUB2 (OTUB2 (OTUB2A)) | PCAF (PCAF) | viability at 48 h, 10 µM (in vitro [1]) | viability at 48 h, 10 µM (in vitro [2]) | viability at 48 h, 10 µM (in vitro [3]) |
| --- | --- | --- | --- | --- | --- | --- | --- |
| CN(Cc1ccco1)C(=O)CCl [PCM-0102672] | 0 | 0.1 | 0 | 0 | 51.9% | 78.1% | 49.1% |
| O=C(CCl)Nc1ccc(F)cc1Cl [PCM-0103040] | 0 | 0 | 0 | 0 | 76.9% | 68.7% | 60.3% |
| Cc1c(Cl)cnc(NC(=O)CCl)c1Cl [PCM-0102657] | 0 | 0.06 | 0.2 | 0 | 101% | 98.2% | 99.6% |
| C=CC(=O)Nc1cc(N)ccc1F [PCM-0102533] | 0 | 0 | 0 | 0 | 108% | 113% | 75.6% |
| COC(=O)c1c(NC(=O)CCl)sc2c1CCC2 [PCM-0102542] | 0 | 0.14 | 0 | 0 | 18.1% | 70.6% | 18.6% |
| COc1ccc(N2CCN(C(=O)CCl)CC2)cc1 [PCM-0102254] | 0 | 0 | 0 | 0 | 33.8% | 84.2% | 42.2% |
| Cc1ccc(S(=O)(=O)N2CCN(C(=O)CCl)CC2)cc1 [PCM-0102759] | 0 | 0.12 | 0 | 0 | 7.5% | 49.9% | 8.6% |
| O=C(CCl)N1CCc2sccc2C1c1ccccc1 (stereo not drawn) [PCM-0103024] | 0 | 0.69 | 0 | 0 | 4.6% | 3% | 1.9% |
| COc1ccccc1N1CCN(C(=O)CCl)CC1.Cl [PCM-0102173] | 0 | 0 | 0 | 0 | 44.1% | 76.9% | 58.2% |
| C=CC(=O)N1CC2CC3CC2C1C3OC (stereo not drawn) [PCM-0102649] | 0 | 0 | 0.15 | 0 | 107% | 118% | 117% |
| CC1CCC(C#N)(N(C)C(=O)CCl)CC1 (stereo not drawn) [PCM-0102251] | 0 | 0.05 | 0 | 0 | 16.5% | 55.4% | 3.9% |
| C=CC(=O)Nc1cccc(Br)c1 [PCM-0102667] | 0 | 0.08 | 0.18 | 0 | 97.1% | 89.4% | 86.4% |
| Cl.O=C(CCl)N1CCN(c2cccc(C(F)(F)F)c2)CC1 [PCM-0102239] | 0.07 | 0.08 | 0 | 0 | 4.2% | 28.2% | 19.6% |
| O=C(CCl)Nc1cc2c(cc1Cl)OCO2 [PCM-0102209] | 0 | 0.13 | 0.27 | 0 | 58.1% | 70.7% | 47.1% |
| O=C(CCl)NNC(=O)c1ccco1 [PCM-0102985] | 0.2 | 0 | 0.27 | 0 | 96.9% | 89.7% | 100% |
| CC(=O)c1cccc(N2Cc3ccccc3C2=NC(=O)CCl)c1 [PCM-0102283] | 0 | 0 | 0 | 0 | 99.6% | 99.5% | 75% |
| C=CC(=O)N1CCC(N2CCS(=O)(=O)CC2)CC1 [PCM-0102444] | 0 | 0 | 0 | 0 | 102% | 109% | 93.6% |
| Cc1cc(C)c(NC(=O)CCl)c(C)c1 [PCM-0102352] | 0 | 0 | 0 | 0 | 84.2% | 78.5% | 72.9% |
| COCC(=O)NNC(=O)CCl [PCM-0103070] | 0 | 0 | 0 | 0 | 95.3% | 85.8% | 97.1% |
| O=C(CCl)NCc1cccs1 [PCM-0102280] | 0 | 0 | 0.22 | 0 | 94.3% | 81.3% | 82% |
| O=C(CCl)Nc1cc2c(cc1Cl)OCCCO2 [PCM-0102331] | 0 | 0.36 | 0.26 | 0 | 17.2% | 57.1% | 10.3% |
| C#Cc1cccc(NC(=O)CCl)c1 [PCM-0102735] | 0 | 0 | 0.09 | 0 | 90.9% | 85.7% | 87% |
| Cc1nnc(NC(=O)CCl)o1 [PCM-0102147] | 0 | 0 | 0 | 0 | 102% | 107% | 92.2% |
| C=CC(=O)NCC1CCN(C)c2ccccc21 (stereo not drawn) [PCM-0102644] | 0 | 0 | 0 | 0 | 106% | 98.5% | 73% |

From paper PMC6556873, “Rapid Covalent-Probe Discovery by Electrophile-Fragment Screening” (Journal of the American Chemical Society, 2019)
